≈ marks a conversion by molar mass, not a printed value. Where two headings read alike, the source gives them in different places.
Key:
Type in all cases: cell-based
[1] = tested on: E. coli 32313 (resistant); experiment: Antibacterial assay, MIC in 96-well plates at different pH
Text: (§1) The antibacterial effect was studied in two Gram-positive and in two Gram-negative strains. The Gram-positive S. aureus ATCC 25923 (ATCC, Manassas, VA, USA) is a methicillin-susceptible reference bacterial strain, while S. aureus 272123 is a clinical isolate and resistant to methicillin and ofloxacin (MRSA), which was given by Prof. Dr. Leonard Amaral (Institute of Hygiene and Tropical Medicine, Lisbon, Portugal). The Gram-negative strains were E. coli ATCC 25922 (ATCC, Manassas, VA, USA), which is sensitive to antibiotics, and E. coli 32313 (provided by the Institute of Clinical Microbiology, University of Szeged, Hungary), which is resistant to different antibiotics (trimethoprim/sulfamethoxazole, gentamicin, ciprofloxacin, and norfloxacin).
(§2) The minimum inhibitory concentrations (MICs) of the compounds were determined in 96-well plates based on the Clinical and Laboratory Standard Institute guidelines. The compounds were diluted in 100 μL of Mueller Hinton broth. Then, an overnight bacterial culture diluted 10,000 times in 100 μL of medium was added to each well, with the exception of the medium control wells. For each strain and each tested compound, four pH values were set (5, 6, 7, and 8). Each sample was triplicated.

[2] = tested on: E. coli ATCC 25922 (sensitive); experiment: as above
Text: as §1, §2

S. aureus 272123 (MRSA) = experiment: as above
Text: as §1, §2

[3] = tested on: S. aureus ATCC 25923 (methicillin-susceptible); experiment: as above
Text: as §1, §2

[4] = tested on: Colo205 human colon adenocarcinoma cell line (doxorubicin-sensitive); experiment: MTT assay, cytotoxicity at pH 6 and 7; conditions: Colo205, 72 h incubation, read-out: IC50
Protocol: (§3) All cell culture reagents were obtained from Sigma-Aldrich (Merck KGaA, Darmstadt, Germany) and plasticware from Sarstedt (Nümbrecht, Germany). Human colonic adenocarcinoma cell lines Colo205 (catalog number: ATCC-CCL-222) and its doxorubicin-resistant counterpart Colo320 (catalog number: ATCC-CCL-220.1) were purchased from LGC Promochem (Teddington, UK). The cells were cultured in RPMI 1640 medium supplemented with 10% heat-inactivated fetal bovine serum, 2 mM L-glutamine, 1 mM sodium pyruvate, and 100 mM HEPES buffer, adjusting the pH to 6.0 or 7.0. The cells were incubated at 37 °C in a 5% CO2–95% air atmosphere. The semiadherent human colon cancer cells were detached with Trypsin-Versene solution for 5 min at 37 °C.
(§4) The solutions were freshly prepared prior to measurements (see Section 2.1). […] Firstly, these samples were diluted in complete culture medium; then, two-fold serial dilutions of the compounds were prepared in 100 μL of RPMI 1640, horizontally. The semiadherent colonic adenocarcinoma cells were treated with Trypsin-Versene solution. They were adjusted to a density of 1 × 10^4 cells in 100 μL of RPMI 1640 medium and were added to each well, with the exception of the medium control wells. The final volume of the wells containing compounds and cells was 200 μL. Samples were triplicated. The pH of the medium was adjusted to 6.0 or 7.0.
(§5) The culture plates were incubated at 37 °C for 72 h; at the end of the incubation period, 20 μL of MTT solution (from a stock solution of 5 mg/mL) was added to each well. After incubation at 37 °C for 4 h, 100 μL of SDS solution (10% in 0.01 M HCI) was added to each well, and the plates were further incubated at 37 °C overnight. Cell growth was determined by measuring the optical density (OD) at 540/630 nm with a Multiscan EX ELISA reader (Thermo Labsystems, Cheshire, WA, USA). […] Curves were fitted using GraphPad Prism software (2022, version 9.4.1, Graphpad Software (LLC) d.b.a Dotmatics, San Diego, CA, USA) using the sigmoidal dose–response model (comparing variable and fixed slopes).
(§6) The pH-dependent solution speciation of the selected mixed-ligand complexes is an important feature in the hypothesized mechanism of action, and the modeling of acidosis is necessary for the in vitro anticancer assays. In order to find out the cytotoxicity difference based on the pH of the medium, cytotoxic activity was determined at pH 6 and 7 by MTT assay in two human colon adenocarcinoma cell lines (doxorubicin-sensitive Colo205 and doxorubicin-resistant Colo320). […] The mixed-ligand complexes were prepared prior to the measurements, as was already described in Section 2.1. With this method, the effect of the different counter ions could be avoided, and a more adequate comparison of the mixed-ligand complexes could be conducted.

[5] = tested on: Colo320 human colon adenocarcinoma cell line (doxorubicin-resistant); experiment: MTT assay, cytotoxicity at pH 6 and 7; conditions: Colo320, 72 h incubation, read-out: IC50
Protocol: as §3, §4, §5, §6

[6] = E. coli resistant, pH 6, after one day, read-out: MIC
[7] = E. coli resistant, pH 7, after one day, read-out: MIC
[8] = Escherichia coli, 24 h, E. coli resistant, pH 5, after one day, read-out: MIC
[9] = Escherichia coli, 24 h, E. coli resistant, pH 6, after one day, read-out: MIC
[10] = Escherichia coli, 24 h, E. coli resistant, pH 7, after one day, read-out: MIC
[11] = Escherichia coli, 24 h, E. coli resistant, pH 8, after one day, read-out: MIC
[12] = E. coli sensitive, pH 6, after one day, read-out: MIC
[13] = E. coli sensitive, pH 7, after one day, read-out: MIC
[14] = Escherichia coli, ATCC25922, 24 h, E. coli sensitive, pH 5, after one day, read-out: MIC
[15] = Escherichia coli, ATCC25922, 24 h, E. coli sensitive, pH 6, after one day, read-out: MIC
[16] = Escherichia coli, ATCC25922, 24 h, E. coli sensitive, pH 7, after one day, read-out: MIC
[17] = Escherichia coli, ATCC25922, 24 h, E. coli sensitive, pH 8, after one day, read-out: MIC
[18] = Staphylococcus aureus, 24 h, pH 5, after one day, read-out: MIC
[19] = Staphylococcus aureus, 24 h, pH 6, after one day, read-out: MIC
[20] = Staphylococcus aureus, 24 h, pH 7, after one day, read-out: MIC
[21] = Staphylococcus aureus, 24 h, pH 8, after one day, read-out: MIC
[22] = Staphylococcus aureus, ATCC25923, 24 h, S. aureus sensitive, pH 7, after one day, read-out: MIC
[23] = Staphylococcus aureus, ATCC25923, 24 h, S. aureus sensitive, pH 8, after one day, read-out: MIC
[24] = E. coli resistant, pH 5, after one day, read-out: MIC
[25] = E. coli resistant, pH 8, after one day, read-out: MIC
[26] = E. coli sensitive, pH 5, after one day, read-out: MIC
[27] = E. coli sensitive, pH 8, after one day, read-out: MIC
[28] = pH 5, after one day, read-out: MIC
[29] = pH 6, after one day, read-out: MIC
[30] = pH 7, after one day, read-out: MIC
[31] = pH 8, after one day, read-out: MIC
[32] = S. aureus sensitive, pH 7, after one day, read-out: MIC
[33] = S. aureus sensitive, pH 8, after one day, read-out: MIC

Structure (SMILES)	MIC [1, 6]	MIC [1, 7]	MIC [1, 8]	MIC [1, 9]	MIC [1, 10]	MIC [1, 11]	MIC [2, 12]	MIC [2, 13]	MIC [2, 14]	MIC [2, 15]	MIC [2, 16]	MIC [2, 17]	MIC (S. aureus 272123 (MRSA); [18])	MIC (S. aureus 272123 (MRSA); [19])	MIC (S. aureus 272123 (MRSA); [20])	MIC (S. aureus 272123 (MRSA); [21])	IC50 ([4]; pH 6)	IC50 ([4]; pH 7)	IC50 ([5]; pH 6)	IC50 ([5]; pH 7)	also measured
Clc1ccc(COC(Cn2ccnc2)c2ccc(Cl)cc2Cl)cc1 (centres unmarked) [econ, econazole, reference compound]	>100 µM	>100 µM	> 100 µM	> 100 µM	> 100 µM	> 100 µM	>100 µM	>100 µM	> 100 µM	> 100 µM	> 100 µM	> 100 µM	25 µM (≈ 9.54 µg/mL)	12.5 µM (≈ 4.77 µg/mL)	6.25 µM (≈ 2.39 µg/mL)	3.12 µM (≈ 1.19 µg/mL)	–	–	–	–	MIC [3, 22]: 0.78 µM (≈ 0.298 µg/mL); MIC [3, 23]: 0.19 µM (≈ 0.0725 µg/mL)
O=P(O)(O)C(O)(Cn1ccnc1)P(=O)(O)O [zol, zoledronic acid, reference compound]	–	–	> 100 µM	> 100 µM	> 100 µM	> 100 µM	–	–	> 100 µM	> 100 µM	> 100 µM	> 100 µM	> 100 µM	> 100 µM	> 100 µM	> 100 µM	–	–	–	–	MIC [3, 22]: > 100 µM; MIC [3, 23]: > 100 µM
Cc1c(C)c(C)[c-](C)c1C.Clc1ccc(COC(Cn2ccnc2)c2ccc(Cl)cc2Cl)cc1.[Cl-].[Rh+2][O]c1cccc2cccnc12 (racemic) [[RhCp*(8HQH−1)Cl] +econ]	>100 µM	>100 µM	–	–	–	–	25 µM	25 µM	–	–	–	–	–	–	–	–	1.8 ± 0.1 µM	3.3 ± 0.1 µM	4.52 ± 0.04 µM	3 ± 0.1 µM	IC50 ([4]; pH 6, listed as [RhCp*(8HQH−1)(H2O)]^+ with econazole): ~1.8 µM; MIC [1, 24]: 50 µM; MIC [1, 25]: 50 µM; MIC [2, 26]: 25 µM; MIC [2, 27]: 25 µM; MIC (S. aureus 272123 (MRSA); [28]): 12.5 µM; MIC (S. aureus 272123 (MRSA); [29]): 6.25 µM; MIC (S. aureus 272123 (MRSA); [30]): 3.125 µM; MIC (S. aureus 272123 (MRSA); [31]): 3.125 µM; MIC [3, 32]: 0.39 µM; MIC [3, 33]: 0.39 µM
c1cnc2c(c1)ccc1cccnc12 [phen, 1,10-phenanthroline, reference compound]	–	–	50 µM (≈ 9.01 µg/mL)	50 µM (≈ 9.01 µg/mL)	50 µM (≈ 9.01 µg/mL)	50 µM (≈ 9.01 µg/mL)	–	–	50 µM (≈ 9.01 µg/mL)	50 µM (≈ 9.01 µg/mL)	50 µM (≈ 9.01 µg/mL)	25 µM (≈ 4.51 µg/mL)	50 µM (≈ 9.01 µg/mL)	> 100 µM	> 100 µM	> 100 µM	–	–	–	–	MIC [3, 22]: > 100 µM; MIC [3, 23]: > 100 µM
COc1cccc2c1C(=O)c1c(O)c3c(c(O)c1C2=O)C[C@@](O)(C(=O)CO)C[C@@H]3O[C@H]1C[C@H](N)[C@H](O)[C@H](C)O1 [doxorubicin, reference compound]	–	–	–	–	–	–	–	–	–	–	–	–	–	–	–	–	–	–	–	–	IC50 ([4]; Homo sapiens, COLO 205, pH 6): 7.6 ± 0.3 µM; IC50 ([4]; Homo sapiens, COLO 205, pH 7): 0.71 ± 0.02 µM; IC50 ([5]; Homo sapiens, COLO 320, pH 6): 0.46 ± 0.02 µM
Cc1c(C)c(C)[c-](C)c1C.[Cl-].[Cl-].[Rh+3].c1cnc2c(c1)ccc1cccnc12 [[RhCp*(phen)Cl]Cl]	>100 µM	>100 µM	–	–	–	–	>100 µM	>100 µM	–	–	–	–	–	–	–	–	> 100 µM	> 100 µM	> 100 µM	> 100 µM	MIC [1, 24]: > 100 µM; MIC [1, 25]: > 100 µM; MIC ([1]; any of the bacterial strains, resistant E. coli, read-out: MIC (no antibacterial effect)): > 100 µM; MIC [2, 26]: > 100 µM; MIC [2, 27]: > 100 µM; MIC ([2]; any of the bacterial strains, E. coli, read-out: MIC (no antibacterial effect)): > 100 µM; MIC (S. aureus 272123 (MRSA); any of the bacterial strains, read-out: MIC (no antibacterial effect)): > 100 µM; MIC (S. aureus 272123 (MRSA); [28]): > 100 µM; MIC (S. aureus 272123 (MRSA); [29]): >100 µM; MIC (S. aureus 272123 (MRSA); [30]): >100 µM; MIC (S. aureus 272123 (MRSA); [31]): > 100 µM; MIC [3, 32]: >100 µM; MIC [3, 33]: > 100 µM; MIC ([3]; any of the bacterial strains, S. aureus, read-out: MIC (no antibacterial effect)): > 100 µM
CC1=C(C)C(C)C(C)=C1C.[Rh+3].c1ccncc1.c1cnc2c(c1)ccc1cccnc12 [[RhCp*(phen)(Py)]^2+]	–	–	–	–	–	–	–	–	–	–	–	–	–	–	–	–	> 100 µM	> 100 µM	83.6 ± 4.1 µM	> 100 µM	–
Oc1cccc2cccnc12 [Complex 8HQ, 8-hydroxyquinoline, reference compound]	–	–	–	–	–	–	–	–	–	–	–	–	–	–	–	–	–	–	–	–	MIC ([1]; Escherichia coli, 24 h, pH 5): > 100 µM; MIC ([1]; Escherichia coli, 24 h, pH 6): > 100 µM; MIC ([1]; Escherichia coli, 24 h, pH 7): > 100 µM; MIC ([1]; Escherichia coli, 24 h, pH 8): > 100 µM; MIC ([2]; Escherichia coli, ATCC25922, 24 h, pH 5): > 100 µM; MIC ([2]; Escherichia coli, ATCC25922, 24 h, pH 6): > 100 µM; MIC ([2]; Escherichia coli, ATCC25922, 24 h, pH 7): > 100 µM; MIC ([2]; Escherichia coli, ATCC25922, 24 h, pH 8): > 100 µM; MIC (S. aureus 272123 (MRSA); Staphylococcus aureus, 24 h, pH 5): 100 µM; MIC (S. aureus 272123 (MRSA); Staphylococcus aureus, 24 h, pH 6): 6.25 µM; MIC (S. aureus 272123 (MRSA); Staphylococcus aureus, 24 h, pH 7): 6.25 µM; MIC (S. aureus 272123 (MRSA); Staphylococcus aureus, 24 h, pH 8): 6.25 µM; MIC ([3]; Staphylococcus aureus, ATCC25923, 24 h, pH 7): 25 µM; MIC ([3]; Staphylococcus aureus, ATCC25923, 24 h, pH 8): 25 µM
CC1=C(C)C(C)C(C)=C1C.Cn1ccnc1.[Rh+3].c1cnc2c(c1)ccc1cccnc12 [[RhCp*(phen)(mim)]^2+]	–	–	–	–	–	–	–	–	–	–	–	–	–	–	–	–	> 100 µM	> 100 µM	71.7 ± 3.3 µM	> 100 µM	–
CC1=C(C)C(C)C(C)=C1C.Cn1ccnc1.Oc1cccc2cccnc12.[Rh+3] [[RhCp*(8HQH−1)(mim)]^+]	–	–	–	–	–	–	–	–	–	–	–	–	–	–	–	–	7 ± 0.4 µM	7.2 ± 0.2 µM	6 ± 0.1 µM	6.1 ± 0.2 µM	–
